Measured values from PubChem BioAssay (NCI).
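48-hour exposure; five concentrations; linearly interpolated endpoints. GI50: concentration for 50% inhibition of growth. TGI marks complete inhibition of growth.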

Key:
Assay in all cases: NCI anticancer screen, dose series, 48 h
786-0 renal = tested on: 786-0 renal
A498 renal = tested on: A498 renal
A549 NSCLC = tested on: A549 NSCLC
ACHN renal = tested on: ACHN renal
BT-549 breast = tested on: BT-549 breast
CAKI-1 renal = tested on: CAKI-1 renal
CCRF-CEM leukemia = tested on: CCRF-CEM leukemia
COLO 205 colon = tested on: COLO 205 colon
DU-145 prostate = tested on: DU-145 prostate
EKVX NSCLC = tested on: EKVX NSCLC
HCC-2998 colon = tested on: HCC-2998 colon
HCT-116 colon = tested on: HCT-116 colon
HCT-15 colon = tested on: HCT-15 colon
HL-60(TB) leukemia = tested on: HL-60(TB) leukemia
HOP-62 NSCLC = tested on: HOP-62 NSCLC
HOP-92 NSCLC = tested on: HOP-92 NSCLC
HS 578T breast = tested on: HS 578T breast
HT29 colon = tested on: HT29 colon
IGROV1 ovarian = tested on: IGROV1 ovarian
K-562 leukemia = tested on: K-562 leukemia
KM12 colon = tested on: KM12 colon
LOX IMVI melanoma = tested on: LOX IMVI melanoma
M14 melanoma = tested on: M14 melanoma
MALME-3M melanoma = tested on: MALME-3M melanoma
MCF7 breast = tested on: MCF7 breast
MDA-MB-231 breast = tested on: MDA-MB-231 breast
MDA-MB-435 = tested on: MDA-MB-435
MOLT-4 leukemia = tested on: MOLT-4 leukemia
NCI-H226 lung = tested on: NCI-H226 lung
NCI-H23 lung = tested on: NCI-H23 lung
NCI-H460 lung = tested on: NCI-H460 lung
NCI-H522 lung = tested on: NCI-H522 lung
NCI/ADR-RES ovarian = tested on: NCI/ADR-RES ovarian
OVCAR-3 ovarian = tested on: OVCAR-3 ovarian
OVCAR-4 ovarian = tested on: OVCAR-4 ovarian
OVCAR-5 ovarian = tested on: OVCAR-5 ovarian
OVCAR-8 ovarian = tested on: OVCAR-8 ovarian
PC-3 prostate = tested on: PC-3 prostate
RPMI-8226 leukemia = tested on: RPMI-8226 leukemia
RXF 393 renal = tested on: RXF 393 renal
SF-268 CNS = tested on: SF-268 CNS
SF-295 CNS = tested on: SF-295 CNS
SF-539 CNS = tested on: SF-539 CNS
SK-MEL-2 melanoma = tested on: SK-MEL-2 melanoma
SK-MEL-28 melanoma = tested on: SK-MEL-28 melanoma
SK-MEL-5 melanoma = tested on: SK-MEL-5 melanoma
SK-OV-3 ovarian = tested on: SK-OV-3 ovarian
SN12C renal = tested on: SN12C renal
SNB-19 CNS = tested on: SNB-19 CNS
SNB-75 CNS = tested on: SNB-75 CNS
SR leukemia = tested on: SR leukemia
SW-620 colon = tested on: SW-620 colon
T-47D breast = tested on: T-47D breast
TK-10 renal = tested on: TK-10 renal
U251 CNS = tested on: U251 CNS
UACC-257 melanoma = tested on: UACC-257 melanoma
UACC-62 melanoma = tested on: UACC-62 melanoma
UO-31 renal = tested on: UO-31 renal

`COC(=O)c1c2c(c(C)[n+]([O-])c1C)C(=O)C(NCc1cccc(Cl)c1)=CC2=O` was tested, and the GI50 (786-0 renal) was 2.65 µM, the TGI (786-0 renal) was 13.9 µM and the GI50 (A498 renal) was 1.56 µM. For the same compound, the TGI (A498 renal) was 3.18 µM, the GI50 (A549 NSCLC) was 1.94 µM and the TGI (A549 NSCLC) was 6.17 µM. It also gave a GI50 (ACHN renal) of 1.52 µM, a TGI (ACHN renal) of 3.58 µM and a GI50 (BT-549 breast) of 1.54 µM. The TGI (BT-549 breast) was 3.07 µM, the GI50 (CAKI-1 renal) was 1.97 µM and the TGI (CAKI-1 renal) was 5.63 µM. The GI50 (CCRF-CEM leukemia) was 2.29 µM, the TGI (CCRF-CEM leukemia) was 8.53 µM and the GI50 (COLO 205 colon) was 0.388 µM. For the same compound, the TGI (COLO 205 colon) was 1.55 µM, the GI50 (DU-145 prostate) was 1.91 µM and the TGI (DU-145 prostate) was 4.2 µM. For the same compound, the GI50 (EKVX NSCLC) was 1.51 µM, the TGI (EKVX NSCLC) was 3.61 µM and the GI50 (HCC-2998 colon) was 1.82 µM. The TGI (HCC-2998 colon) was 4.46 µM, the GI50 (HCT-116 colon) was 0.679 µM and the TGI (HCT-116 colon) was 4.9 µM. It also gave a GI50 (HCT-15 colon) of 1.1 µM, a TGI (HCT-15 colon) of 2.75 µM and a GI50 (HL-60(TB) leukemia) of 0.628 µM. For the same compound, the TGI (HL-60(TB) leukemia) was 3.55 µM, the GI50 (HOP-62 NSCLC) was 2.3 µM and the TGI (HOP-62 NSCLC) was 9.62 µM. It also gave a GI50 (HOP-92 NSCLC) of 2.22 µM, a TGI (HOP-92 NSCLC) of 4.54 µM and a GI50 (HS 578T breast) of 2.32 µM. For the same compound, the TGI (HS 578T breast) was 6.91 µM, the GI50 (HT29 colon) was 0.634 µM and the TGI (HT29 colon) was > 100 µM. It also gave a GI50 (IGROV1 ovarian) of 1.17 µM, a TGI (IGROV1 ovarian) of 2.98 µM and a GI50 (K-562 leukemia) of 2.17 µM. The TGI (K-562 leukemia) was > 100 µM, the GI50 (KM12 colon) was 1.56 µM and the TGI (KM12 colon) was 9.73 µM. It also gave a GI50 (LOX IMVI melanoma) of 1.76 µM, a TGI (LOX IMVI melanoma) of 5.58 µM and a GI50 (M14 melanoma) of 1.06 µM. It also gave a TGI (M14 melanoma) of 2.4 µM, a GI50 (MALME-3M melanoma) of 0.171 µM and a TGI (MALME-3M melanoma) of 0.432 µM. It also gave a GI50 (MCF7 breast) of 1.1 µM, a TGI (MCF7 breast) of 2.77 µM and a GI50 (MDA-MB-231 breast) of 1.18 µM. For the same compound, the TGI (MDA-MB-231 breast) was 4.88 µM, the GI50 (MDA-MB-435) was 0.344 µM and the TGI (MDA-MB-435) was 1.13 µM. It also gave a GI50 (MOLT-4 leukemia) of 2.01 µM, a TGI (MOLT-4 leukemia) of 5.68 µM and a GI50 (NCI-H226 lung) of 2.1 µM. For the same compound, the TGI (NCI-H226 lung) was 4.67 µM, the GI50 (NCI-H23 lung) was 1.23 µM and the TGI (NCI-H23 lung) was 3.25 µM. It also gave a GI50 (NCI-H460 lung) of 0.659 µM, a TGI (NCI-H460 lung) of 7.92 µM and a GI50 (NCI-H522 lung) of 1.91 µM. It also gave a TGI (NCI-H522 lung) of 4.62 µM, a GI50 (NCI/ADR-RES ovarian) of 1.64 µM and a TGI (NCI/ADR-RES ovarian) of 5.81 µM. For the same compound, the GI50 (OVCAR-3 ovarian) was 0.322 µM, the TGI (OVCAR-3 ovarian) was 1.17 µM and the GI50 (OVCAR-4 ovarian) was 0.507 µM. The TGI (OVCAR-4 ovarian) was 1.85 µM, the GI50 (OVCAR-5 ovarian) was 1.81 µM and the TGI (OVCAR-5 ovarian) was 3.63 µM. The GI50 (OVCAR-8 ovarian) was 1.52 µM, the TGI (OVCAR-8 ovarian) was 9.78 µM and the GI50 (PC-3 prostate) was 1.62 µM. For the same compound, the TGI (PC-3 prostate) was 17.9 µM, the GI50 (RPMI-8226 leukemia) was 2.14 µM and the TGI (RPMI-8226 leukemia) was 7.81 µM. It also gave a GI50 (RXF 393 renal) of 1.48 µM, a TGI (RXF 393 renal) of 3.37 µM and a GI50 (SF-268 CNS) of 2.53 µM. It also gave a TGI (SF-268 CNS) of 12.9 µM, a GI50 (SF-295 CNS) of 1.31 µM and a TGI (SF-295 CNS) of 2.72 µM. The GI50 (SF-539 CNS) was 1.8 µM, the TGI (SF-539 CNS) was 3.26 µM and the GI50 (SK-MEL-2 melanoma) was 1.95 µM. For the same compound, the TGI (SK-MEL-2 melanoma) was 4.6 µM, the GI50 (SK-MEL-28 melanoma) was 3.17 µM and the TGI (SK-MEL-28 melanoma) was 15 µM. For the same compound, the GI50 (SK-MEL-5 melanoma) was 0.2 µM, the TGI (SK-MEL-5 melanoma) was 0.448 µM and the GI50 (SK-OV-3 ovarian) was 3.05 µM. The TGI (SK-OV-3 ovarian) was 12.8 µM, the GI50 (SN12C renal) was 1.02 µM and the TGI (SN12C renal) was 2.44 µM. The GI50 (SNB-19 CNS) was 2.45 µM, the TGI (SNB-19 CNS) was 7.8 µM and the GI50 (SNB-75 CNS) was 2.1 µM. The TGI (SNB-75 CNS) was 5.07 µM, the GI50 (SR leukemia) was 1.85 µM and the TGI (SR leukemia) was > 100 µM. For the same compound, the GI50 (SW-620 colon) was 1.01 µM, the TGI (SW-620 colon) was 4.31 µM and the GI50 (T-47D breast) was 1.69 µM. The TGI (T-47D breast) was 4.41 µM, the GI50 (TK-10 renal) was 3.69 µM and the TGI (TK-10 renal) was 15.3 µM. It also gave a GI50 (U251 CNS) of 2.1 µM, a TGI (U251 CNS) of 7.52 µM and a GI50 (UACC-257 melanoma) of 0.701 µM. It also gave a TGI (UACC-257 melanoma) of 2.28 µM, a GI50 (UACC-62 melanoma) of 1.24 µM and a TGI (UACC-62 melanoma) of 2.84 µM. It also gave a GI50 (UO-31 renal) of 1.53 µM and a TGI (UO-31 renal) of 3.23 µM.
